These results are taken from US20200384072A1, “THERAPY OF IONIZING RADIATION-INDUCED DISORDERS” (SCK-CEN, priority 2019, published 2020).

The subject of one assay is TICAE cells. Put plainly: Scrape loading and dye transfer (SLDT), gap junctional coupling after irradiation, TICAE cells. The assay is classed as cell-based, human. The following applies: Carbenoxolone 50 μM, single 0.1 or 5 Gy, 6 h and 72 h p.i. The method, then: (§1) The scrape loading and dye transfer assay (SLDT) was used to assess gap junctional function after IR exposure. TICAE and TIME cells were seeded in a 24-well plate at a density of 1×10^5 cells/well in four to six biological replicates. Three days later, cells reached 100% confluence and the medium was refreshed before irradiation with 1 ml/well for single irradiation experiment and 1.5 ml for fractionated irradiation experiment. At different time points after irradiation (6 and 72 h post single irradiation, or 72 h post fractionated irradiation) the cells were washed 3 times with a scrape loading and dye transfer (SLDT) buffer (137 mM NaCl, 5.36 mM KCl, 0.81 mM MgCl2, 5.55 mM […], 25 mM HEPES, pH 7.4). Then, the cells were incubated with a SLDT solution composed of SLDT buffer and 400 μM 6-carboxyfluorescein (6-CF, 0.376 kDa) (Sigma-Aldrich Co. LCC, Diegem, Belgium) for one minute. A vertical scratch was made in the middle of each well, using a 20G needle (Becton Dickinson, Erembodegem, Belgium). After another one minute incubation, the cells were washed 6 times with HMS supplemented with 25 mM HEPES (Sigma-Aldrich Co. LCC, Diegem, Belgium). […] The relative area of 6-CF transfer was calculated using FIJI software. By analyzing the area of the dye diffusion from the first line of cells to adjacent cells, the gap junctional coupling was determined.

Another assay relates to TIME cells. Description: Scrape loading and dye transfer (SLDT), gap junctional coupling after irradiation, TIME cells. The assay is classed as cell-based, human. The conditions noted are these: Carbenoxolone 50 μM, single 0.1 or 5 Gy, 6 h and 72 h p.i. How it is done: as §1
Assay [1] has as its system RBE4 cells. Description: γ-H2AX counts after local 3×3 mm X-ray irradiation (irradiated and bystander zones), RBE4 cells. The following applies: 1 Gy, 3 h post-irradiation, Cbx 50 μM, Gap26 161 μM, TAT-Gap19 200 μM, Xestospongin C 5 μM. The assay is classed as cell-based, rat. The method, then: (§2) A defined area of the cell culture dishes were exposed to X-rays (1Gy or 20 Gy) by using a small animal radiation research platform (SARRP, Xstrahl, 220 kV, 13 mA), making use of a 3×3 mm collimator. Whole dish irradiation was done using a 10×10 cm broad-beam collimator, while localized Irradiation was performed with a 3×3 mm collimator. A Gafchromic RTQA2 film, with a sensitivity of 0.02 Gy, was placed underneath the cell dishes in order to delineate the irradiated zone.
(§3) Cells were fixed for 25 min with 4% formaldehyde (VWR) and blocked for 30 min with blocking buffer (5% normal goat serum, 1% bovine serum albumin (BSA), 0.2% Triton X-100 in PBS D+). Overnight incubation with primary antibody (1/500 anti-γ-H2AX in dilution buffer, 1/10 blocking buffer in PBS D+) was followed by a 1 h incubation with 1/400 XX-biotin-goat-anti-mouse antibody in dilution buffer, followed by a 1 h incubation with 1/400 streptavidin-alexa488 in PBS D+. Nuclei were stained with 1 μg/mL DAPI in PBS D+ for 10 min and cells were kept in PBS D+ supplemented with NaN3 at 4° C. All steps except the overnight incubation which was carried out at 4° C., were carried out at room temperature and cell cultures were rinsed thoroughly with PBS D+ between all incubation steps. Imaging was performed with an automated BD Pathway 435 imaging system (10× objective, 10×10 montage resulting in an overall image size of 8.5×6.5 mm). We then quantified the number of γ-H2AX-foci positive nuclei in the directly irradiated and bystander areas and expressed the count as a percentage relative to the number of nuclei and subtracted the percentage of background γ-H2AX signal in non-irradiated paired control cultures for each experiment. For counting γ-H2AX foci, images were thresholded to remove background pixel noise below the foci level. Where applicable, results were normalized against vehicle (bar charts with a 100% vehicle bar without statistical variability or a horizontal line).

Assay [2] deals with primary brain microvascular endothelial cells (pBMECs). Description: γ-H2AX counts after local 3×3 mm X-ray irradiation (irradiated and bystander zones), pBMECs. The conditions noted are these: 1 Gy, 3 h post-irradiation. The assay is classed as cell-based, mouse. The method, then:
Cortices, from 10-12 week old mice, were isolated by removing cerebellum, striatum, optic nerves, brain white matter, outer vessels and meninges. After homogenization with a Dounce homogenizer in WBB (Washing Buffer B: HMS, 10 mM Hepes, 0.35 g/L NaHCO3, 0.1% BSA), the homogenate was mixed with 30% dextran in WBB and centrifuged at 3000×g for 25 min at 4° C. The pellet containing the vascular component was then resuspended in WBB and filtered through a 60 μm NY60 Nylon Net Filter (Millipore, Darmstadt, Germany). Following centrifugation at 1000×g for 7 min at room temperature, the pellet was digested in collagenase/dispase supplement with DNase I (Roche Diagnostics, Vilvoorde, Belgium) and TLCK (Tosyl, Lysin chloromethyl ketone, sigma-aldrich) for 33 min at 37° C. in a shaking water bath. The digested capillary suspension was then seeded after multiple washing steps on wells coated with matrigel or glass coated with Corning Cell-Tak (VWR, Leuven, Belgium). For the isolation of intact capillaries the protocol was aborted just before the digestion step.
as §2, §3

For assay [3], the system named is RBE4 cells. Put plainly: Irradiation-induced ATP release, RBE4 cells. The following applies: broad-beam 1 Gy, 5 min post-irradiation, BAPTA-AM 10 μM, NALC 1 mM, c-PTIO 100 μM. In kind it is cell-based, rat. How it is done:
ATP was measured using a luciferin-luciferase assay kit (Sigma-Aldrich) in combination with a luminometer plate reader (Victor3 1420 multi label counter; Perkin Elmer, Zaventem, Belgium).
Extracellular ATP measurements were initially carried out at different time-points post-irradiation, the effect of blockers on ATP release was tested at the 5 min post-irradiation time-point (time of maximum ATP release).

For assay [4], the system named is RBE4 cells. Put plainly: Cytosolic Ca2+ imaging after medium transfer from irradiated to recipient RBE4 cells. In kind it is cell-based, rat. The method, then:
Cells were seeded on glass coverslips (18 mm 0) coated with 3.5 μg/cm^2 Corning cell-tak (VWR, Leuven, Belgium) and ester loaded for 45 min with 10 μM Fluo-3-AM in HBSS-HEPES supplemented with 1 mM of probenecid and 0.01% of pluronic F127 at room temperature followed by de-esterification over 15 min. Imaging was performed using an inverted fluorescence microscope equipped with a ×40 oil immersion objective and an EM-CCD camera (QuantEM™ 512SC CCD camera, Photometrics, Tucson, Ariz.). For direct Ca^2+ measurements the loaded cells were irradiated and transferred to the microscopy stage. For medium transfer, the loaded cells were superfused for 1 min with HBSS-Hepes (1 mM), followed by 4 min with HBSS-Hepes conditioned by irradiated cultures. Fluorescence intensity changes in the cells were analyzed with custom-developed FluoFrames software (L. Leybaert, Ghent, Belgium). Ca^2+ changes were quantified as the area under the curve (AUC) of the Ca^2+ traces.

SMILES strings stand for the structures.

With `CC1(C)[C@@H](OC(=O)CCC(=O)O)CC[C@]2(C)[C@H]3C(=O)C=C4[C@@H]5C[C@@](C)(C(=O)O)CC[C@]5(C)CC[C@@]4(C)[C@]3(C)CC[C@@H]12` [Carbenoxolone, carbenoxolone], the “6-CF dye spread (gap junctional dye coupling)” value with TICAE cells and in the assay on TIME cells was “inhibited the dye spread in all cases” in each case. Further, the entries for the “γ-H2AX counts in the bystander zone (normalized to vehicle)” value (with RBE4 cells [1]; in assay [2]) were “significantly inhibited” and “significant decrease”, respectively. Further, the “γ-H2AX counts in the irradiated zone (normalized to vehicle)” value in the assay on RBE4 cells [1] was “not statistically significant”. The “γ-H2AX counts in the irradiated area (normalized to vehicle)” value in assay [2] is given as “significant decrease”. In addition, the “irradiation-induced ATP release” value in the assay with RBE4 cells [3] is recorded as “inhibited”. In addition, in the assay with RBE4 cells [4] (inhibitor added to the irradiated culture 30 min before irradiation, NALC 1 mM), the “AUC of Ca2+ transients in recipient bystander cells” value is “reduced the area under the curve (AUC)”. The “[Ca2+]i responses in recipient cells” value in the assay on RBE4 cells [4] (inhibitor added to the recipient cells, PPADS 50 μM) is “inhibited the [Ca^2]i responses”.
